Source: patent US20260083864A1, “CONTRAST AGENTS FOR USE IN DIAGNOSTIC COMPUTED TOMOGRAPHY IMAGING” (Bayer Aktiengesellschaft, priority 2022, published 2026)

Tests used:
[1] = tested on: freshly isolated rat hepatocytes; test: Uptake into freshly isolated rat hepatocytes; details: for Uptake rat hepatocytes: 100 μmol Gd/L, 10 min, 37° C., relative to RC1 (Gd-EOB-DTPA); for Inhibition Rifampicine: rat hepatocyte uptake, test item and Rifampicine 1:1, each 100 μM
OATP1B1 = target: T1, OATP1B1 (Homo sapiens, UniProt Q9Y6L6); test: Uptake into stable transfected OATP1B1 HEK 293 cells; type: cell-based; details: for Uptake into OATP1B1-HEK 293 cells: 40 min incubation, relative to RC1 (Gd-EOB-DTPA); for Inhibition Rifampicine: uptake into OATP1B1-HEK 293 cells
T1 sequence (Q9Y6L6 1-691): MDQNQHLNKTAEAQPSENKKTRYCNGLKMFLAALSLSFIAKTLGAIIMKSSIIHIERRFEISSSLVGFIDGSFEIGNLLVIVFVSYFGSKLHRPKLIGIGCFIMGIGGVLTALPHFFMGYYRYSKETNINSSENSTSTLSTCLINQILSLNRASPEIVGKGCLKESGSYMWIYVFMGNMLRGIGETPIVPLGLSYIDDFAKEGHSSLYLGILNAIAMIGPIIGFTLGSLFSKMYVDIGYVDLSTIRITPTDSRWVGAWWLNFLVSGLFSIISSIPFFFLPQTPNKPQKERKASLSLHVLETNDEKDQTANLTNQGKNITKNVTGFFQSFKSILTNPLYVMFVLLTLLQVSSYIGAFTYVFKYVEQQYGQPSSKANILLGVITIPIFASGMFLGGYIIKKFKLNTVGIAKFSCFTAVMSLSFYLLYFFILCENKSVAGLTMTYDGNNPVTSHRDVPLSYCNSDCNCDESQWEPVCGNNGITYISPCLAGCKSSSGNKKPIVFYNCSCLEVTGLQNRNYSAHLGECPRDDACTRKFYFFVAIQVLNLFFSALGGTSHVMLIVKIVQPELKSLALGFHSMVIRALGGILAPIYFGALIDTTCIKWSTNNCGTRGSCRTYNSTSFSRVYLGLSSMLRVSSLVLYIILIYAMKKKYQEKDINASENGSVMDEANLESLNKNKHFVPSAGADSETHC
Protocol: (§1) Cryopreserved cells were shortly thawed in water bath and diluted in 10 mL warm culture medium (37° C.). After medium change the cells were grown for 3d in a 25 cm^2 cell culture flask. After 3 to 5d the cells were transferred into 75 cm^2 flasks. […] All test items were prepared in transport buffer at a final concentration of 100 M from stock solutions (180 to 500 mM concentration). The OATP1B1 HEK 293 cells were incubated with test solutions (test item in transport buffer 500 L) for 40 min on a thermoshaker without shaking (PHMP, Fa. Grant Bio). Triplicates were performed for each test item. After incubation the cells were washed with 2 mL of cold PBS (+) buffer (Dulbeccos PBS+, Fa. Gibco). […] As a reference standard Gd-EOB-DTPA (gadoxetate) is used in the same well plate.

[2] = Partition coefficient (log P butanol/buffer); type: physicochemical; details: 1-butanol / 50 mM Tris-HCl, pH 7.4, room temperature
[3] = Water solubility in aqueous buffer; details: aqueous buffer 10 mM Tris-HCl, pH 7.4, 20° C.
Protocol: The solid compounds were added stepwise to the buffer solution. More substance is added once all the suspended material is dissolved until an equilibrium between undissolved and dissolved substance is reached. The suspension was mixed using a shaker (Heidolph Reax 2000) and treated 5 min in an ultrasound bath (Bandelin, Sonorex Super RK255H).

OATP1B3 = target: T2, OATP1B3 (Homo sapiens, UniProt Q9NPD5); test: Uptake into stable transfected OATP1B3 HEK 293 cells; type: cell-based; details: for Uptake into OATP1B3-HEK 293 cells: 40 min incubation, relative to RC1 (Gd-EOB-DTPA); for Inhibition Rifampicine: uptake into OATP1B3-HEK 293 cells
T2 sequence (Q9NPD5 1-702): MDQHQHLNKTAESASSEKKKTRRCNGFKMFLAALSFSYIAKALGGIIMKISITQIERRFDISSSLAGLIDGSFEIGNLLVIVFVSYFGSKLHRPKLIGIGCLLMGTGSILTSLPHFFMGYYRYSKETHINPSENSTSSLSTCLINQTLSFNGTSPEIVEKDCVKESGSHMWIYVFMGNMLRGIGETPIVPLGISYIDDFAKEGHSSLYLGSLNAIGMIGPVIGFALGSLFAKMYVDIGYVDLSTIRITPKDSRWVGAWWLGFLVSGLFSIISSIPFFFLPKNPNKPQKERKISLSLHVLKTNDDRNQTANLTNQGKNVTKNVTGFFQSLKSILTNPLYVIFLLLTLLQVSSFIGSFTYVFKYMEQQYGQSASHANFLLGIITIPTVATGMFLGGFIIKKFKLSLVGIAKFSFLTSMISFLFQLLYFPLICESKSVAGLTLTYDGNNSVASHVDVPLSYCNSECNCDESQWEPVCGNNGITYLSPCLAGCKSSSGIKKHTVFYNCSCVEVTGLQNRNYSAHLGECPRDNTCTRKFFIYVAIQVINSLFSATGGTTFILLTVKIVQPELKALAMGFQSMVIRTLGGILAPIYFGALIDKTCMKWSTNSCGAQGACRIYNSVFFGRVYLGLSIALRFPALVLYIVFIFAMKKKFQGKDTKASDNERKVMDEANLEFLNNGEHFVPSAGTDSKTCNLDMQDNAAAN
Protocol: as §1, with “100 µM” for “100 M”, “The OATP1B3” for “The OATP1B1”, “500 μL)” for “500 L)”

[4] = Relaxivity measurements at 1.41 T in water; type: physicochemical; details: 37° C., normalized to Gd
Protocol: Relaxivity measurements at 1.41 T were performed using a MiniSpec mq60 spectrometer (Bruker Analytik, Karlsruhe, Germany) operating at a resonance frequency of 60 MHz and a temperature of 37° C. The T1 relaxation times were determined using the standard inversion recovery (IR) method with a fixed relaxation delay of at least 5×T1. The variable inversion time (TI) was calculated automatically by the standard software of the MiniSpec mq60 (8 steps). The T2 measurements were performed by using a Carr-Purcell-Meiboom-Gill (CPMG) pulse sequence, applying a relaxation delay of at least 5×T1.
Each relaxivity measurement was performed using three different Gd concentrations (3 concentrations between 0.05 and 2 mM). […] Human plasma preparation: For each experiment fresh blood was taken from a volunteer using 10 mL citrate-tubes (Sarstedt S-Monovette 02.1067.001, 10 mL, Citrate). The 10 mL citrate-tubes were carefully inverted 10 times to mix blood and anticoagulant and centrifuged for 15 min at 1811 g at RT (Eppendorf, Centrifuge 5810R).
(§2) The relaxivities n (where i=1, 2) were calculated based on the measured relaxation rates Ri in water and plasma: […]

[5] = Relaxivity measurements at 1.41 T in human plasma; type: physicochemical; details: 37° C., normalized to Gd
Protocol: The T1 relaxation times were determined using the standard inversion recovery (IR) method with a fixed relaxation delay of at least 5×T1. The variable inversion time (TI) was calculated automatically by the standard software of the MiniSpec mq60 (8 steps). The T2 measurements were performed by using a Carr-Purcell-Meiboom-Gill (CPMG) pulse sequence, applying a relaxation delay of at least 5×T1.
Each relaxivity measurement was performed using three different Gd concentrations (3 concentrations between 0.05 and 2 mM).
as §2

| Compound | Uptake rat hepatocytes [1] | Inhibition Rifampicine [1] | Uptake into OATP1B1-HEK 293 cells (OATP1B1) | Inhibition Rifampicine (OATP1B1) | Log P (partition coefficient butanol/buffer) [2] | Solubility [3] | Uptake into OATP1B3-HEK 293 cells (OATP1B3) | Inhibition Rifampicine (OATP1B3) | r1 water [4] | r1 human plasma [5] |
| --- | --- | --- | --- | --- | --- | --- | --- | --- | --- | --- |
| CCCCOc1ccc(CCCC[C@@H](C(=O)O)N2CCN([C@@H](CO)C(=O)[O-])CCN([C@@H](CO)C(=O)[O-])CCN([C@@H](CO)C(=O)[O-])CC2)cc1.[Gd+3] [Example 9, gadolinium (2S,2′S,2″S)-2,2′,2″-{10-[(1S)-5-(4-butoxyphenyl)-1-carboxypentyl]-1,4,7,10-tetraazacyclododecane-1,4,7-triyl}tris(3-hydroxypropanoate)] | 54 % of RC1 | 46 % inhibition | 498 % of RC1 | 73 % inhibition | 0.26 | 0.002 mol/L | 124 % of RC1 | 95 % inhibition | – | – |
| CCOCCOCCOCCOc1ccc(C[C@@H](C(=O)O)N2CCN(CC(=O)[O-])CCN(CC(=O)[O-])CCN(CC(=O)[O-])CC2)cc1.[Gd+3] [Example 11, gadolinium 2,2′,2″-{10-[(1S)-1-carboxy-2-(4-{2-[2-(2-ethoxyethoxy)ethoxy]ethoxy}phenyl)ethyl]-1,4,7,10-tetraazacyclododecane-1,4,7-triyl}triacetate] | 39 % of RC1 | 93 % inhibition | 154 % of RC1 | 40 % inhibition | −1.68 | – | 16 % of RC1 | 73 % inhibition | 4.3 L/mmol/s | 6.3 L/mmol/s |
| CCOc1ccc(CCCC[C@@H](C(=O)O)N2CCN(CC(=O)[O-])CCN(CC(=O)[O-])CCN(CC(=O)[O-])CC2)cc1.[Gd+3] [Example 27, gadolinium 2,2′,2″-{10-[(1S)-1-carboxy-5-(4-ethoxyphenyl)pentyl]-1,4,7,10-tetraazacyclo-dodecane-1,4,7-triyl}triacetate] | 69 % of RC1 | 98 % inhibition | 284 % of RC1 | 93 % inhibition | −0.41 | >0.009 mol/L | 24 % of RC1 | 96 % inhibition | – | – |
| CCOCCOCCOCCOc1ccc(C[C@@H](C(=O)O)N2CCN(CC(=O)[O-])CCN(CC(=O)[O-])CCN(CC(=O)[O-])CC2)c(OCCOCCOCCOCC)c1.[Gd+3] [Example 40, gadolinium 2,2′,2″-{10-[(1S)-2-(2,4-bis {2-[2-(2-ethoxyethoxy)ethoxy]ethoxy}phenyl)-1-carboxyethyl]-1,4,7,10-tetraazacyclododecane-1,4,7-triyl}triacetate] | 20 % of RC1 | 88 % inhibition | – | – | −1.43 | – | – | – | 5.4 L/mmol/s | 7.3 L/mmol/s |
| CCOCCOCCOc1ccc(CCC[C@@H](C(=O)O)N2CCN([C@H](CO)C(=O)[O-])CCN([C@H](CO)C(=O)[O-])CCN([C@@H](CO)C(=O)[O-])CC2)cc1.[Gd+3] [Example 49, gadolinium (2R,2′R)-2,2′-{7-[(1S)-1-carboxy-4-{4-[2-(2-ethoxyethoxy)ethoxy]phenyl}butyl]-10-[(1S)-1-carboxylato-2-hydroxyethyl]-1,4,7,10-tetraazacyclododecane-1,4-diyl}bis(3-hydroxypropanoate)] | – | – | – | 71 % inhibition | – | >0.018 mol/L | – | 94 % inhibition | – | – |
| CCOCCOCCOc1ccc(CCC[C@@H](C(=O)O)N2CCN([C@H](CO)C(=O)[O-])CCN([C@@H](CO)C(=O)[O-])CCN([C@@H](CO)C(=O)[O-])CC2)cc1.[Gd+3] [Example 50, gadolinium (2S,2'S)-2,2′-{7-[(1S)-1-carboxy-4-{4-[2-(2-ethoxyethoxy)ethoxy]phenyl}butyl]-10-[(1R)-1-carboxylato-2-hydroxyethyl]-1,4,7,10-tetraazacyclododecane-1,4-diyl}bis(3-hydroxypropanoate)] | – | – | – | 84 % inhibition | – | >0.019 mol/L | – | 93 % inhibition | – | – |
